The source of these data is patent publication US20100151572A1, “ANTI-TUMORAL COMPOSITIONS METHODS” (priority 2005, published 2010).

What is called Km is the concentration of substrate that gives half-maximal velocity. By Vmax is commonly meant the rate approached at saturating substrate.

Data set [1] relates to Nc1nc(F)nc2c1ncn2[C@@H]1O[C@H](CO)[C@@H](O)[C@@H]1O. As to the kind of experiment: purified protein, by the assay type. The conditions noted are these: other: substrate of E. coli PNP.
The test system of data set [2] is Cc1ncnc2c1ncn2[C@H]1C[C@H](O)[C@@H](CO)O1. As to the kind of experiment: purified protein, by the assay type. In kind it is biochemical. The conditions noted are these: other: substrate of E. coli PNP. An excerpt: (§1) Table 1 describes the kinetic constants underlying these enzymatic reactions with E. coli PNP.
Data set [3] relates to Nc1nc(F)nc2c1ncn2[C@H]1C[C@H](O)[C@@H](CO)O1. The data set is described as follows: purified protein, by the assay type. To be noted: other: substrate of E. coli PNP. The class given is biochemical.
Excerpt: as §1

The conditions of data set [4]: cited from earlier work.
The subject of data set [5] is D54 tumors (no PNP expression). As to the kind of experiment: Control D54 tumors without PNP expression, drug treatment in vivo.
Data set [6] is described as follows: Systemic dose response tolerability in mice, human dose by Freireich formula. In kind it is in vivo. The source says: The formula of Freireich et al., Cancer Chemother. Rep., 50:219 244, (1966) can be used to determine the maximum tolerated dose of substrate for a human subject. […] This amount or slightly less should be tolerated in humans with minimal side effects. Furthermore, it is understood that modes of administration that permit the substrate to remain localized at or near the site of the tumor will be effective at lower doses than systemically administered substrates.

In a further data set the test system is D54 human glioma tumors. The data set is described as follows: Ad-PNP injection of D54 tumors followed by F-araAMP. The class given is in vivo. The procedure:
D54 human glioma tumors (appx. 250 mg) are injected with an Ad-PNP (2×10^9 PFU, open circles) or saline (closed circles). PNP activity in tumor extracts taken two days after vector administration is approximately 5000 PNP units.

Data set [7] can be described thus: F-Ade plasma levels after prodrug injection in tumor-bearing mice. The class given is in vivo. The procedure:
Measurements of generation and clearance of circulating F-Ade are made by HPLC for example. Radiolabeled prodrug is obtained from Moravek Biochemicals and injected into mice by the same route and dosage used in efficacy experiments for comparison. Plasma samples are removed at increasing time intervals after injection of prodrug and analyzed by reverse-phase HPLC for parent compound and base. Identification of prodrug and F-Ade is by HPLC as described above.
When tumors are approximately 200 mg the mice are injected intraperitoneally with 20 mg/kg 3H-F-dAdo. […] Four mice from each group are sacrificed 5, 15, 30, and 60 minutes after injection of F-dAdo, and plasma samples were obtained. The amount of F-Ade is determined in each plasma sample using reverse phase HPLC, as described.
A similar experiment is conducted with F-araAMP. […] The limit of detection in these experiments with fludarabine is approximately 1 micromolar.

A short description of data set [8]: Maximally tolerated dose of prodrug in mice. To be noted: for MTD in mice bearing tumors that express E. coli PNP: versus mice without PNP tumors. In kind it is in vivo. How it is done:
For experiments shown in FIG. 7, sixteen mice are implanted subcutaneously with D54 parental, no PNP expression cells, D54/PNP MuLv, approximately 250 PNP units), or D54/lentiPNP, […] PNP units tumor cells as described for efficacy evaluations. When tumors are approximately 200 mg the mice are injected intraperitoneally with 20 mg/kg 3H-F-dAdo. This dose of F-dAdo is the maximally tolerated dose of F-dAdo when given 5 times daily for 3 consecutive days. Four mice from each group are sacrificed 5, 15, 30, and 60 minutes after injection of F-dAdo, and plasma samples were obtained. The amount of F-Ade is determined in each plasma sample using reverse phase HPLC, as described.
There is no difference in the F-Ade plasma levels in mice bearing tumors with different levels of E. coli PNP activity, which is consistent with the fact that the MTD of F-dAdo is not reduced in mice bearing tumors that express E. coli PNP.
A similar experiment is conducted with F-araAMP. […] The limit of detection in these experiments with fludarabine is approximately 1 micromolar. As with F-dAdo, the MTD of F-araAMP is not reduced in mice bearing tumors that express E. coli PNP (either from lentivirus or MuLv), or when given in combination with vectors that express E. coli PNP.

In data set [9] the test system is D54 glioma tumors (MuLv-PNP transduced). The data set is described as follows: D54 tumors expressing E. coli PNP from MuLV, prodrug treatment in vivo. The procedure:
For example, in one in vivo tumor model, tumors are established in animals by subcutaneous implantation of about 10^7 cells into the axillary region of 6-10 mice. Athymic (or scid) mice are used for models of certain human tumors including cells such as D54, HCT-15, and SR475 head/neck. Syngeneic models are also used. For instance, mouse tumors are established using Colon 26 and G26 glioma cells.
The resulting solid tumors are measured twice weekly in two dimensions and the mass calculated using the formula for a prolate ellipsoid, [length (mm)×width^2 (mm)]/2=mg, assuming unit density. The data will permit the determination of a tumor volume doubling time, % “no takes”, and % spontaneous regressions.
PNP expression in MuLv was driven by an SV40 promoter. Mice are given non-absorbable antibiotics in their drinking water prior to treatment with high doses of MeP-dR (e.g. 168 mg/kg/d×3d) to minimize intestinal cleavage of the compound (Bharara, S., et al., 2005, Human Gene Therapy 16:339-347.). Antibiotics are not co:administered for lower doses of MeP-dR, or with less avid substrates such as fludarabine.

For data set [10], the system named is D54 glioma tumors (lentivirus PNP). The data set is described as follows: D54 tumors expressing E. coli PNP from lentivirus, prodrug treatment in vivo. Details: species or system human. An excerpt:
Syngeneic models are also used.
D54 glioma tumors are established from a stable cell line expressing E. coli PNP by a strong, CMV-based promoter in a lentiviral vector. FIG. 10 illustrates results. Open Circles: Tumors established from 10% PNP expressing/90% non-expressing tumor cells; PNP activity 9600±1300 units on day 14. Open Triangles: 5% expressing, 95% non-expressing tumor cells; PNP activity 5500±1700 units. Open Squares: Tumors established from 2.5% expressing, 97.5% non-expressing (PNP activity 3600±530 units). Closed symbols depict growth of corresponding (10%, 5%, 2.5%) PNP tumors treated with vehicle (saline control). At least six animals are studied per group. Identically treated animals from each study arm are sacrificed just prior to initiation of MeP-dR therapy (day 14) to measure intratumoral PNP acitivity. […] These experiments test the influence of substantially higher PNP activities on bystander killing in vivo. PNP activity in 300 mg tumors comprised of 100% lentivirus transduced cells is found to be approximately 126,000 PNP units (one unit=1 nmole MeP-dR converted per mg tumor tissue per hour). When the level of E. coli PNP is studied using lentiviral expression, improvements in bystander killing are observed as shown in FIG. 10.
FIG. 12 depicts a study in which 100% of cells express E. coli PNP using lentivirus. Complete regression and cures of tumors (12 of 12) are obtained with F-araAMP following a 3 day treatment schedule. […] Adjusting the schedule of F-araAMP may also improve bystander killing in vivo (FIG. 16).
Tumors in which 100% of cells expressed E. coli PNP are treated with a maximally tolerated dose (MTD, 100 mg/kg schedule, open circles) or half the MTD (closed triangles). Six animals are included per treatment group. […] PNP activity in these tumors is 126,000±16,000 units on the day of drug therapy.
Tumors are established from an inoculum in which 10% of cells expressed E. coli PNP. PNP expression on the day of drug treatment is 14,200±681 PNP units. Anti-tumor efficacy is greater at 100 mg/kg F-araAMP (open circles) than at 50 mg/kg (closed triangles) or 25 mg/kg (open triangles) given over a standard 3 day schedule (q2h×5, q1d×3 days).
D54 glioma tumors are established with decreasing proportions of PNP expressing cells (and increasing non-expressing (parental) cells). (open symbols: F-araAMP therapy; closed symbols: no prodrug therapy; circles: 2.5%; triangles 5%, and squares 10% PNP transduced cells). F-araAMP was 100 mg/kg q2h×5, q1d×3.
Tumors comprised of 5% PNP expressing cells and 2 different fludarabine schedules are shown.

Data set [11] can be described thus: Safety analysis in flank and CNS tumor models with PNP/F-araAMP. The class given is in vivo.

Turning to E. coli PNP (Escherichia coli K-12), the Km in data set [1] worked out at 960 µM; in [2], 125 µM; in data set [3], 22 µM. The Vmax in data set [1] was determined as 0.0983 µmol/min/mg; in data set [2] it was 24.3 µmol/min/mg; in [3] it was 7.08 µmol/min/mg.
As for `Nc1nc(F)nc2c1ncn2[C@@H]1O[C@H](CO)[C@@H](O)[C@@H]1O` [F-araA, 9-(beta-D-arabinofuranosyl)-2-fluoroadenine], in data set [4] (in vivo), the circulating half life was 50 min and the “peak levels compared with MeP-dR” value is “significantly higher”.
In the case of `O=NN(CCCl)C(=O)NCCCl` [BCNU], the “activity against D54 tumors” value in data set [5] (at maximally tolerated doses) is on record as “minimal activity”.
In the case of `Cc1ncnc2c1ncn2[C@@H]1O[C@H]([C@H](C)O)[C@@H](O)[C@H]1O` [5′-methyl(talo)MeP-R], the “human dosage determined by formula of Freireich” value in data set [6] (200 mg/kg times 3, from mouse data) was 600 mg/m^2. In addition, the tolerability entry in [6] (mice, systemic, 200 mg per kg per day for 3 days (3 doses total)) is “well tolerated”.
Regarding Ad-PNP, the “PNP activity in tumor extracts” value in the data set with D54 human glioma tumors (two days after vector administration, 2x10^9 PFU) was “approximately 5000 PNP units”.
Regarding `Nc1nc(F)nc2c1ncn2[C@@H]1O[C@H](COP(=O)(O)O)[C@@H](O)[C@@H]1O` [F-araAMP], the “F-Ade in plasma of mice bearing tumors expressing E. coli PNP” value in data set [7] (100 mg/kg F-araAMP, limit of detection approximately 1 micromolar) is “no F-Ade is detected”. Further, the maximally tolerated dose in [8] (given 5 times daily for 3 consecutive days, mice) worked out at 100 mg/kg. The “MTD in mice bearing tumors that express E. coli PNP” value in [8] is “not reduced”. Further, in data set [9] (100% of cells expressed E. coli PNP (MuLv), tumors subsequently escape), the duration of regressions is roughly 30 days. Besides, the “bystander killing in vivo” value in [9] (F-araAMP following E. coli PNP transduction with MuLv) is given as “little or no bystander killing”. Also, the “anti-tumor effect vs non-treatment groups” value in [10] (2.5%, 5%, 10% PNP transduced cells, 100 mg/kg q2h x5, q1d x3, p<0.001) is given as “significantly different from non-treatment groups”. For the same compound, the “anti-tumor effect vs non-treatment group” value in data set [10] (5% PNP expressing cells, 2 different schedules, p<0.001) is “significantly different from non-treatment group”; in data set [10] (10% PNP cells, 100, 50 or 25 mg/kg q2h x5, q1d x3 days, p<0.001, efficacy greater at 100 mg/kg), “significantly different from non-treatment group”. Also, the “tolerability during tumor regressions” value in data set [10] (100% PNP tumors, F-araAMP MTD or half MTD) is given as “without excessive weight loss or other undesired sequelae”. In data set [10] (100% of cells express PNP, F-araAMP 3 day schedule, MTD (100 mg/kg) or half the MTD, six animals per group), the “complete regression and cures of tumors” value was 12 of 12 and cured of their tumors. Further, in data set [10] (as few as 2.5% of tumor cells express PNP), the “anti-tumor effects at low proportion of PNP cells” value is reported as “Anti-tumor effects are observed”. In the data set with D54 human glioma tumors (Ad-PNP 2x10^9 PFU, tumors appx. 250 mg, p<0.002 vs virus alone or no treatment), the “anti-tumor effect together with Ad-PNP” value is listed as “slowing of tumor growth”. In addition, the “toxicity in the study” value with D54 human glioma tumors (Ad-PNP together with F-araAMP) is listed as “No limiting weight loss, animal deaths or other toxicities”. Moreover, in data set [11], the animal longevity entry is given as “improved animal longevity”. Also, the “toxicity as judged by weight loss or lethality” value in data set [11] is listed as “have not indicated significant toxicity”. For the same compound, in [4] (4 hours after injection of F-araAMP), the prodrug in plasma result is on record as “very little prodrug in plasma”. Further, in data set [5] (no PNP expression, GFP control transgene, standard 3 day schedule), the “effect on control D54 tumors” value is reported as “no effect”.
As for `Nc1nc(F)nc2c1ncn2[C@H]1C[C@H](O)[C@@H](CO)O1` [2-F-dAdo, 2-fluoro-2′-deoxyadenosine], the “F-Ade plasma levels in mice bearing tumors with different levels of E. coli PNP activity” value in [7] (20 mg/kg 3H-F-dAdo ip, 5, 15, 30, 60 min, D54 parental, D54/PNP MuLv, D54/lentiPNP tumors) is “no difference”. Also, the maximally tolerated dose in data set [8] (mouse, in vivo, 3 days) stood at 20 mg/kg. Besides, the “MTD in mice bearing tumors that express E. coli PNP” value in data set [8] is listed as “not reduced”.
